This test deals with Cannabinoid receptor 1 (Mus musculus, UniProt P47746). The test is described as follows: Displacement of [3H]CP-55940 from CB1R in C57Bl/6Jhsd mouse cortex membrane incubated for 1 hr by liquid scintillation counter analysis. For orientation: In a radioligand displacement assay an active substance lowers the binding of a labelled ligand.

By Ki is commonly meant the equilibrium dissociation constant of an inhibitor or competing ligand from its target.

Cannabinoid receptor 1, sequence (P47746 whole entry): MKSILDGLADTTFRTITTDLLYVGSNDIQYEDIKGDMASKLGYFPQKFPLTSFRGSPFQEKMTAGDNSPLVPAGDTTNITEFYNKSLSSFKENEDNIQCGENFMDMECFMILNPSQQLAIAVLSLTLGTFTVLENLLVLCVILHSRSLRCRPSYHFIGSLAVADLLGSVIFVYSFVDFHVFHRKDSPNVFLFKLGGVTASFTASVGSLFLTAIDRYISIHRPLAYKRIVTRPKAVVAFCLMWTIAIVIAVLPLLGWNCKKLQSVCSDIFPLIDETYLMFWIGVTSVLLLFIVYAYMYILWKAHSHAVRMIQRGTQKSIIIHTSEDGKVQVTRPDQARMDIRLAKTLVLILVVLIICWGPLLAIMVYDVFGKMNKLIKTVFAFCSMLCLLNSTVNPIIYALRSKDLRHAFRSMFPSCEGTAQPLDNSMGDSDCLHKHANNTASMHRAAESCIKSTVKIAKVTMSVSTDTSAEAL

The compound `CCOC(=O)N1CCC(N[C@H]2CCCOc3c2nn(-c2ccccc2Cl)c3-c2ccc(Cl)cc2)CC1` displayed a Ki of 8.9 nM.
